Read-outs that look alike come from different tables or passages of the source.
Target: T1, Human M4 (Homo sapiens, UniProt P08173)
T1 construct: expressed in transfected cells
T1 sequence (P08173 1-479): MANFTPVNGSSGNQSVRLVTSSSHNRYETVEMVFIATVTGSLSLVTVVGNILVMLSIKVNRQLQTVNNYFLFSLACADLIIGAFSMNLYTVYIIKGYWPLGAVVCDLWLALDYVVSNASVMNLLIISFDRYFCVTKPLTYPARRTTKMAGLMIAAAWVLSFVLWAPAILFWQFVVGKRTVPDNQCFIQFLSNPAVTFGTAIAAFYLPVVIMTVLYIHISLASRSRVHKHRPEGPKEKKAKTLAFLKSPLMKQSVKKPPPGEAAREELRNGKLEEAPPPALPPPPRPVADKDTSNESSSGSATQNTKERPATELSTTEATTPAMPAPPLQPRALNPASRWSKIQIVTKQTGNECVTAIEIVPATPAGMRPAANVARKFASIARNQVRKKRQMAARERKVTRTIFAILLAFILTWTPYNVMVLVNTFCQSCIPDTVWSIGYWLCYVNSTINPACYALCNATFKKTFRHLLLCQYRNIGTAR
Assay: mAChR M4 cell-based functional assay (calcium flux, potentiation of EC20 acetylcholine response), hM4-Gqi5 CHO-K1 cells
Conditions: for Emax at 30 µM: CHO-K1, % ACh maximum at 30 μM; for EC50: calcium flux, read-out: Human M4 EC50
Summary of the method: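 Positive allosteric modulation was scored as a concentration-dependent rise in the response to an EC20 dose of acetylcholine, added 144 s after the compound. Human M4-Gqi5 CHO-K1 cells carried Fluo-4 dye, and compounds ran as 11-point, 3-fold dilution series. EC50 and Emax came from four-parameter logistic fits of the FDSS fluorescence-ratio traces.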

[1] = Table 3, Human M4, read-out: Emax (% ACh maximum at 30 μM)
[2] = Table 3, potentiation of EC20 acetylcholine response, CHO-K1 cells
[3] = hM4-Gqi5 CHO-K1 cells, PAM of EC20 acetylcholine

| Emax at 30 µM [1] | EC50 [2] | SMILES | other results |
| --- | --- | --- | --- |
| 79% | 672 nM | Cc1c(N2CCc3ncc(NC(=O)c4ccc(F)cc4)cc3C2)nn2cnnc2c1C [Compound 158, N-(6-(7,8-dimethyl-[1,2,4]triazolo[4,3-b]pyridazin-6-yl)-5,6,7,8-tetrahydro-1,6-naphthyridin-3-yl)-4-fluorobenzamide] | – |
| 96% | 785 nM | Cc1cccc(C(=O)Nc2cnc3c(c2)CN(c2nn4cnnc4c(C)c2C)CC3)c1 [Compound 157, N-(6-(7,8-dimethyl-[1,2,4]triazolo[4,3-b]pyridazin-6-yl)-5,6,7,8-tetrahydro-1,6-naphthyridin-3-yl)-3-methylbenzamide] | – |
| 79% | 3630 nM | Cc1c(N2CCc3ncc(NC(=O)C(C)C)cc3C2)nn2cnnc2c1C [Compound 154, N-(6-(7,8-dimethyl-[1,2,4]triazolo[4,3-b]pyridazin-6-yl)-5,6,7,8-tetrahydro-1,6-naphthyridin-3-yl)isobutyramide] | – |

Further lines, the compound ahead of its results:

| SMILES | Emax at 30 µM [1] | EC50 [2] | other results |
| --- | --- | --- | --- |
| Cc1c(N2CCc3ncc(Oc4cc(F)ccc4F)cc3C2)nn2c(C(F)(F)F)nnc2c1C [Compound 301, 3-(2,5-difluorophenoxy)-6-(7,8-dimethyl-3-(trifluoromethyl)-[1,2,4]triazolo[4,3-b]pyridazin-6-yl)-5,6,7,8-tetrahydro-1,6-naphthyridine] | 85% | 820 nM | – |
| Cc1ccc(-c2cnc3c(c2)CN(c2nn4c(C(F)(F)F)nnc4c(C)c2C)CC3)cn1 [Compound 256, 6-(7,8-dimethyl-3-(trifluoromethyl)-[1,2,4]triazolo[4,3-b]pyridazin-6-yl)-3-(6-methylpyridin-3-yl)-5,6,7,8-tetrahydro-1,6-naphthyridine] | 78% | 250 nM | – |
| Cc1c(N2CCc3ncc(-c4ccc(N5CCOCC5)nc4)cc3C2)nn2cnnc2c1C [Compound 186, 4-(5-(6-(7,8-dimethyl-[1,2,4]triazolo[4,3-b]pyridazin-6-yl)-5,6,7,8-tetrahydro-1,6-naphthyridin-3-yl)pyridin-2-yl)morpholine] | 100% | 142 nM | – |
| Cc1c(N2CCc3ncc(NCc4ccc(C(C)(C)O)cc4)cc3C2)nn2cnnc2c1C [Compound 17, 2-[4-[[[6-(7,8-dimethyl-[1,2,4]triazolo[4,3-b]pyridazin-6-yl)-7,8-dihydro-5H-1,6-naphthyridin-3-yl]amino]methyl]phenyl]propan-2-ol] | – | – | Emax at 30 µM (human M4, read-out: Emax): 66%; EC50 [3]: 936 nM |
| Cc1ccc(Oc2cnc3c(c2)CN(c2nn4c(C(F)(F)F)nnc4cc2C)CC3)c(F)c1 [Compound 290, 3-(2-fluoro-4-methylphenoxy)-6-(7-methyl-3-(trifluoromethyl)-[1,2,4]triazolo[4,3-b]pyridazin-6-yl)-5,6,7,8-tetrahydro-1,6-naphthyridine] | 69% | 1680 nM | – |
| Cc1c(N2CCc3ncc(-c4ccc(C5CC5)nc4)cc3C2)nn2cnnc2c1C [Compound 38, 3-(6-cyclopropyl-3-pyridyl)-6-(7,8-dimethyl-[1,2,4]triazolo[4,3-b]pyridazin-6-yl)-7,8-dihydro-5H-1,6-naphthyridine] | – | – | Emax at 30 µM (human M4, read-out: Emax): 90%; EC50 [3]: 149 nM |
| [2H]C1([2H])Cc2ncc(Nc3ccncc3F)cc2C([2H])([2H])N1c1nn2cnnc2c(C)c1C [Compound 358, 6-(7,8-dimethyl-[1,2,4]triazolo[4,3-b]pyridazin-6-yl)-N-(3-fluoropyridin-4-yl)-5,6,7,8-tetrahydro-1,6-naphthyridin-5,5,7,7-d4-3-amine] | – | – | Emax at 30 µM (Table 4, Human M4, read-out: Emax (% ACh maximum at 30 μM)): 96%; EC50 (Table 4, potentiation of EC20 acetylcholine response, CHO-K1 cells): 3 nM |
| Cc1c(N2CCc3ncc(-c4cnn(C5CCCC5)c4)cc3C2)nn2cnnc2c1C [Compound 97, 3-(1-cyclopentylpyrazol-4-yl)-6-(7,8-dimethyl-[1,2,4]triazolo[4,3-b]pyridazin-6-yl)-7,8-dihydro-5H-1,6-naphthyridine] | – | – | Emax at 30 µM (human M4, read-out: Emax): 87%; EC50 [3]: 198 nM |

Reference: patent US20250002507A1, “7,8-DIHYDRO-5H-1,6-NAPHTHYRIDINE DERIVATIVES AS POSITIVE ALLOSTERIC MODULATORS OF THE MUSCARINIC ACETYLCHOLINE RECEPTOR M4 FOR TREATING NEUROLOGICAL AND PSYCHIATRIC DISORDERS” (Vanderbilt University, priority 2021, published 2025)
